Data: patent US20240034736A1, “HSD17B13 INHIBITORS AND USES THEREOF” (FL2022-001, Inc., priority 2020, published 2024)

Biological target: Recombinant human HSD17B13 enzyme (Homo sapiens (Human), UniProt Q7Z5P4)
Test: HSD17b13 NAD(P)H-Glo Biochemical Assay
Conditions: 50 uM estradiol, 1 mM NAD+; read-out: HSD17β13 IC50
Description: Recombinant human HSD17B13 enzyme. Substrate: estradiol (Sigma β-Estradiol E8875), 100 mM in DMSO. […] Assay buffer final concentration: 20 mM Tris pH7.4 with 0.002% Tween-20 and 0.02% BSA. […] Enzymatic activity detected by NAD(P)H-Glo™ Detection System (Promega G9062).
Inhibitor compounds were serially diluted in DMSO and then further diluted in assay buffer to a 10× concentration consisting of 1% DMSO.
HSD17b13 enzyme was diluted in 1× assay buffer to the desired enzyme concentration based on the specific activity of the enzyme lot. 20 uL of diluted enzyme was added to each well along with 2.5 uL of 10× inhibitor solution. Assay plate was incubated at RT for 20 minutes, and then 2.5 uL of a 10× substrate/cofactor mix was added to each well for a final concentration of 50 uM estradiol and 1 mMNAD+. Assay plate was incubated at 37° C. for 3 hours. NAD(P)H-Glo™ Detection System reagents were prepared according to manufacturer's specifications, and 25 uL was added to each well. After incubating for 1 hour at RT, luminescence was measured.

Sequence of Recombinant human HSD17B13 enzyme (Q7Z5P4 20-300): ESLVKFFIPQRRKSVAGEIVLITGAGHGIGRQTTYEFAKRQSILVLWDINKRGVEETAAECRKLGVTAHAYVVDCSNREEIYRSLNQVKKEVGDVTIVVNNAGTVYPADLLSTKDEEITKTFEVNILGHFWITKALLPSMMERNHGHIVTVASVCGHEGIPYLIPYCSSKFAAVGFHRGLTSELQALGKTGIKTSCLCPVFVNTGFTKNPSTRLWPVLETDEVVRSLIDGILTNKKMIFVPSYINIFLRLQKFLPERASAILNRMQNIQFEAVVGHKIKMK

SMILES	IC50 [µM]
CS(=O)(=O)Nc1ccccc1-c1ccc2c(cnn2-c2ccc(F)c(O)c2)c1 [Compound 5.14, N-(2-(1-(4-Fluoro-3-hydroxyphenyl)-1H-indazol-5-yl)phenyl)methanesulfonamide]	1 to 30
COc1cccc(-c2ccc3c(cnn3-c3ccc(F)c(O)c3)c2)c1 [Compound 5.21, 2-Fluoro-5-(5-(3-methoxyphenyl)-1H-indazol-1-yl)phenol]	1 to 30
O=C(O)c1ccccc1-c1ccc2c(cnn2-c2ccc(F)c(O)c2)c1 [Compound 5.23, 2-(1-(4-Fluoro-3-hydroxyphenyl)-1H-indazol-5-yl)benzoic acid]	1 to 30
O=C(O)c1cccc(-c2ccc3c(cnn3-c3ccc(F)c(O)c3)c2)c1 [Compound 5.24, 3-(1-(4-Fluoro-3-hydroxyphenyl)-1H-indazol-5-yl)benzoic acid]	1 to 30
Oc1cc(-n2ncc3nc(-c4ccc(O)c(Cl)c4)ncc32)ccc1F [Compound 5.28, 2-Chloro-4-(1-(4-fluoro-3-hydroxyphenyl)-1H-pyrazolo[4,3-d]pyrimidin-5-yl)phenol]	1 to 30
O=C(O)COc1ccc(-c2ccc3c(cnn3-c3ccc(F)c(O)c3)c2)cc1 [Compound 5.29, 2-(4-(1-(4-Fluoro-3-hydroxyphenyl)-1H-indazol-5-yl)phenoxy)acetic acid]	1 to 30
Oc1cc(-n2ncc3cc(-c4ccc(O)c(Cl)c4)ccc32)c(F)cc1F [Compound 8.02, 5-(5-(3-Chloro-4-hydroxyphenyl)-1H-indazol-1-yl)-2,4-difluorophenol]	0.1 to 1
Oc1cc(-n2ncc3nc(-c4ccc(O)c(Cl)c4)ccc32)ccc1F [Compound 8.03, 2-Chloro-4-(1-(4-fluoro-3-hydroxyphenyl)-1H-pyrazolo[4,3-b]pyridine-5-yl)phenol]	1 to 30
Nc1ccc(-c2ccc3c(cnn3-c3ccc(F)c(O)c3)c2)c(Cl)c1 [Compound 9, 5-(5-(4-Amino-2-chlorophenyl)-1H-indazol-1-yl)-2-fluorophenol]	0.1 to 1
CS(=O)(=O)Nc1ccc(-c2ccc3c(cnn3-c3ccc(F)c(O)c3)c2)c(Cl)c1 [Compound 10, N-(3-Chloro-4-(1-(4-fluoro-3-hydroxyphenyl)-1H-indazol-5-yl)phenyl)methanesulfonamide]	0.1 to 1
CC(C)S(=O)(=O)Nc1ccc(-c2ccc3c(cnn3-c3ccc(F)c(O)c3)c2)cc1 [Compound 11, N-(4-(1-(4-Fluoro-3-hydroxyphenyl)-1H-indazol-5-yl)phenyl)propane-2-sulfonamide]	0.1 to 1
O=S(=O)(Nc1ccc(-c2ccc3c(cnn3-c3ccc(F)c(O)c3)c2)cc1)c1ccccc1 [Compound 11.01, N-(4-(1-(4-Fluoro-3-hydroxyphenyl)-1H-indazol-5-yl)phenyl)benzenesulfonamide]	0.1 to 1
CS(=O)(=O)Nc1ccc(-c2ccc3c(cnn3-c3ccc(F)c(O)c3)c2)cn1 [Compound 11.02, N-(5-(1-(4-Fluoro-3-hydroxyphenyl)-1H-indazol-5-yl)pyridine-2-yl)methanesulfonamide]	1 to 30
O=C(O)c1ccc(-c2ccc3c(cnn3-c3ccc(F)c(O)c3)c2)c(Cl)c1 [Compound 12, 3-Chloro-4-(1-(4-Fluoro-3-hydroxyphenyl)-1H-indazol-5-yl)benzoic acid]	1 to 30
NC(=O)c1ccc(-c2ccc3c(cnn3-c3ccc(F)c(O)c3)c2)c(Cl)c1 [Compound 13, 3-Chloro-4-(1-(4-fluoro-3-hydroxyphenyl)-1H-indazol-5-yl)benzamide]	0.1 to 1
CN(C)C(=O)c1nn(-c2ccc(F)c(O)c2)c2ccc(-c3ccc(O)c(Cl)c3)cc12 [Compound 14, 5-(3-Chloro-4-hydroxyphenyl)-1-(4-fluoro-3-hydroxyphenyl)-N,N-dimethyl-1H-indazole-3-carboxamide]	0.1 to 1
O=C(O)CCOc1ccc(-c2ccc3c(cnn3-c3ccc(F)c(O)c3)c2)cc1 [Compound 15, 3-(4-(1-(4-Fluoro-3-hydroxyphenyl)-1H-indazol-5-yl)phenoxy)propanoic acid]	1 to 30

Now from value to compound:

IC50 [µM]	SMILES
0.1 to 1	CN(C)C(=O)c1ccc(-c2ccc3c(cnn3-c3ccc(F)c(O)c3)c2)c(Cl)c1 [Compound 5.10, 3-Chloro-4-(1-(4-fluoro-3-hydroxyphenyl)-1H-indazol-5-yl)-N,N-dimethylbenzamide]
0.1 to 1	N#Cc1ccc(-c2ccc3c(cnn3-c3ccc(F)c(O)c3)c2)c(Cl)c1 [Compound 5.11, 3-Chloro-4-(1-(4-fluoro-3-hydroxyphenyl)-1H-indazol-5-yl)benzonitrile]
0.1 to 1	OCc1ccc(-c2ccc3c(cnn3-c3ccc(F)c(O)c3)c2)c(Cl)c1 [Compound 5.12, 5-(5-(2-Chloro-4-(hydroxymethyl)phenyl)-1H-indazol-1-yl)-2-fluorophenol]
0.1 to 1	CNS(=O)(=O)c1ccc(-c2ccc3c(cnn3-c3ccc(F)c(O)c3)c2)cc1 [Compound 5.13, 4-(1-(4-Fluoro-3-hydroxyphenyl)-1H-indazol-5-yl)-N-methylbenzenesulfonamide]
0.1 to 1	Oc1cc(-n2ncc3cc(-c4ccc(C(F)F)cc4)ccc32)ccc1F [Compound 5.15, 5-(5-(4-(Difluoromethyl)phenyl)-1H-indazol-1-yl)-2-fluorophenol]
0.1 to 1	Oc1ccc(-c2ccc3c(cnn3-c3ccc(F)c(O)c3)c2)c(C(F)(F)F)c1 [Compound 5.16, 2-Fluoro-5-(5-(4-hydroxy-2-(trifluoromethyl)phenyl)-1H-indazol-1-yl)phenol]
0.1 to 1	Cc1n[nH]c(C)c1-c1ccc2c(cnn2-c2ccc(F)c(O)c2)c1 [Compound 5.17, 5-(5-(3,5-Dimethyl-1H-pyrazol-4-yl)-1H-indazol-1-yl)-2-fluorophenol]
0.1 to 1	CC(=O)Nc1ccc(-c2ccc3c(cnn3-c3ccc(F)c(O)c3)c2)c(Cl)c1 [Compound 5.18, N-(3-Chloro-4-(1-(4-fluoro-3-hydroxyphenyl)-1H-indazol-5-yl)phenyl)acetamide]
0.1 to 1	Cc1cc(O)ccc1-c1ccc2c(cnn2-c2ccc(F)c(O)c2)c1 [Compound 5.19, 2-Fluoro-5-(5-(4-hydroxy-2-methylphenyl)-1H-indazol-1-yl)phenol]
0.1 to 1	COc1ccccc1-c1ccc2c(cnn2-c2ccc(F)c(O)c2)c1 [Compound 5.20, 2-Fluoro-5-(5-(2-methoxyphenyl)-1H-indazol-1-yl)phenol]
0.1 to 1	COc1ccc(-c2ccc3c(cnn3-c3ccc(F)c(O)c3)c2)cc1 [Compound 5.22, 2-Fluoro-5-(5-(4-methoxyphenyl)-1H-indazol-1-yl)phenol]
0.1 to 1	CN(C)S(=O)(=O)c1ccc(-c2ccc3c(cnn3-c3ccc(F)c(O)c3)c2)cc1 [Compound 5.25, 4-(1-(4-Fluoro-3-hydroxyphenyl)-1H-indazol-5-yl)-N,N-dimethylbenzenesulfonamide]
0.1 to 1	CNC(=O)c1ccc(-c2ccc3c(cnn3-c3ccc(F)c(O)c3)c2)c(Cl)c1 [Compound 5.26, 3-Chloro-4-(1-(4-fluoro-3-hydroxyphenyl)-1H-indazol-5-yl)-N-methylbenzamide]
0.1 to 1	Oc1ccc(-c2ncc3c(cnn3-c3ccc(F)c(O)c3)n2)c(Cl)c1 [Compound 5.27, 5-(5-(2-Chloro-4-hydroxyphenyl)-1H-pyrazolo[4,3-d]pyrimidin-1-yl)-2-fluorophenol]
0.1 to 1	Oc1cc(-c2noc3cc(-c4ccc(O)c(Cl)c4)ccc23)ccc1F [Compound 5.30, 2-Chloro-4-(3-(4-fluoro-3-hydroxyphenyl)benzo[d]isoxazol-6-yl)phenol]
0.1 to 1	N#Cc1ccccc1-c1ccc2c(cnn2-c2ccc(F)c(O)c2)c1 [Compound 6, 2-(1-(4-Fluoro-3-hydroxyphenyl)-1H-indazol-5-yl)benzonitrile]
0.1 to 1	N#Cc1cccc(-c2ccc3c(cnn3-c3ccc(F)c(O)c3)c2)c1 [Compound 6.01, 3-(1-(4-Fluoro-3-hydroxyphenyl)-1H-indazol-5-yl)benzonitrile]
0.1 to 1	Oc1cc(-n2ncc3cc(-c4cncc(Cl)c4)ccc32)cc(F)c1F [Compound 7, 5-(5-(5-Chloropyridin-3-yl)-1H-indazol-1-yl)-2,3-difluorophenol]
0.1 to 1	COc1ccc(-c2ccc3c(cnn3-c3cc(O)c(F)c(F)c3)c2)cn1 [Compound 7.01, 2,3-Difluoro-5-(5-(6-methoxypyridin-3-yl)-1H-indazol-1-yl)phenol]
0.1 to 1	Cc1ccc(-c2ccc3c(cnn3-c3cc(O)c(F)c(F)c3)c2)cn1 [Compound 7.02, 2,3-Difluoro-5-(5-(6-methylpyridin-3-yl)-1H-indazol-1-yl)phenol]
0.1 to 1	Oc1cncc(-c2ccc3c(cnn3-c3cc(O)c(F)c(F)c3)c2)c1 [Compound 7.03, 5-(1-(3,4-Difluoro-5-hydroxyphenyl)-1H-indazol-5-yl)pyridine-3-ol]
0.1 to 1	Oc1cc(-n2ncc3cc(-c4cncc(F)c4)ccc32)cc(F)c1F [Compound 7.04, 2,3-Difluoro-5-(5-(5-fluoropyridin-3-yl)-1H-indazol-1-yl)phenol]
0.1 to 1	Oc1ccc(-c2ccc3c(cnn3-c3ccc(F)c(O)c3F)c2)cc1Cl [Compound 8, 3-(5-(3-Chloro-4-hydroxyphenyl)-1H-indazol-1-yl)-2,6-difluorophenol]
0.1 to 1	Oc1cc(-n2ncc3cc(-c4ccc(O)c(Cl)c4)cnc32)ccc1F [Compound 8.01, 2-Chloro-4-(1-(4-fluoro-3-hydroxyphenyl)-1H-pyrazolo[3,4-b]pyridine-5-yl)phenol]
